The text below walks through data of patent publication US20100267720A1, “Crystalline Forms of 2-Hydroxy-3- [5- (Morpholin- 4- Ylmethyl) Pyridin-2-YL] IH- Indole- 5 -Carbonitrile Citrate” (ASTRAZENECA AB, priority 2007, published 2010).

Data set [1] in a line: Hygroscopicity by Dynamic Vapour Sorption Analysis (DVS). It counts as physicochemical. As to conditions: for moisture uptake: 25° C. The method, then: The studies were undertaken using Dynamic Vapour Sorption Apparatus (DVS, Surface Measurement Systems, London UK). The apparatus consists of Cahn micobalance housed inside a temperature-controlled cabinet. All experiments were performed at 25° C. The DVS was used to characterize the moisture uptake (w/w %) at different relative humidities (RH). Samples (5-10 mg) were weighed directly into the DSV sample cup and exposed to different relative humidities.

Data set [2] in a line: Chemical stability of the salt forms. Format: physicochemical. As to conditions: compared with the hydrochloride salt of WO 03/082853. From the text: The term “chemical stability” means that the compound can be stored in an isolated form, or in the form of a formulation in which it is provided in admixture with pharmaceutically acceptable carriers, diluents or adjuvants (e.g., in an oral dosage form, such as tablet, capsule, etc.), under normal storage conditions, with little or no chemical degradation or decomposition.

Where [3] appears, read: 40% relative humidity (RH), citrate.
[4] abbreviates: 60% relative humidity (RH), citrate.
Setting [5] is: 80% relative humidity (RH), citrate.

On to `N#Cc1ccc2[nH]c(O)c(-c3ccc(CN4CCOCC4)cn3)c2c1.O=C(O)CC(O)(CC(=O)O)C(=O)O` [2-hydroxy-3-[5-(morpholin-4-ylmethyl)pyridin-2-yl]1H-indole-5-carbonitrile citrate], for which the “hygroscopicity (in words)” value in data set [1] (listed as citrate salt of 2-hydroxy-3-[5-(morpholin-4-ylmethyl)pyridin-2-yl]1H-indole-5-ca) was “lower hygroscopicity than the hydrochloride salt”. In data set [2], the “chemical stability (in words)” value is recorded as “improved chemical stability over the hydrochloride salt”.

For `N#Cc1ccc2[nH]c(O)c(-c3ccc(CN4CCOCC4)cn3)c2c1.O=C(O)CC(O)(CC(=O)O)C(=O)O` [Citrate Form D, 2-Hydroxy-3-[5-(morpholin-4-ylmethyl)pyridin-2-yl]1H-indole-5-carbonitrile citrate], the moisture uptake in data set [1] (setting [3]) came to 3.2 w/w %; in data set [1] (setting [4]) it was 3.6 w/w %; in data set [1] (setting [5]) it was 3.7 w/w %.

Consider `N#Cc1ccc2[nH]c(O)c(-c3ccc(CN4CCOCC4)cn3)c2c1.O=C(O)CC(O)(CC(=O)O)C(=O)O` [Citrate Form E, 2-Hydroxy-3-[5-(morpholin-4-ylmethyl)pyridin-2-yl]1H-indole-5-carbonitrile citrate], for which the moisture uptake in data set [1] (setting [3]) was determined as 0.45 w/w %; in data set [1] (setting [4]), 0.52 w/w %; in data set [1] (setting [5]), 0.60 w/w %. Moreover, the “hygroscopicity (in words)” value in data set [1] (citrate) is recorded as “very low hygroscopicity”.
